# Experimental data from paper PMC10974272, “Cytotoxic and Antiproliferative Activity of LASSBio-2208 and the Attempts to Determine Its Drug Metabolism and Pharmacokinetics In Vitro Profile” (Pharmaceuticals, 2024).
# Where two headings read alike, the source gives them in different places.
# Key:
# CCRF-CEM = assay: SRB cell viability/antiproliferative assay, CCRF-CEM; settings: Homo sapiens, 48 h
# [1] = tested on: T lymphoblast cell line (MOLT-4); assay: MTT cell viability assay, MOLT-4; settings: Homo sapiens
# Protocol: (§8) After the incubation time, the plate was centrifuged (Universal centrifuge 320R Hettich, Kirchlengern, Germany) at 440× g, 10 min and 4 °C, then 110 µL of supernatant was removed and 10 µL of MTT solution was added and left to incubate for 3.5 h in the oven at 37 °C and 5% CO2. […] The CC50 was calculated using the GraphPad Prism 9.0 program. Each sample was tested in triplicate in three independent experiments (N3) [32, 33].
# [2] = tested on: human leukaemia cell line (CCRF-CEM); assay: MTT cell viability assay, CCRF-CEM
# Protocol: as §8
# MOLT-4 = assay: SRB cell viability/antiproliferative assay, MOLT-4; settings: Homo sapiens, MOLT-4, 48 h
# [3] = Non-specific microsome protein binding; format: in vitro ADME; settings: rat, pH 7.4; liver microsomes 0.5 mg protein/mL, 37 °C, 60 min; read-out: Percentage of ƒu(mic) (unbound fraction in nonspecific microsomal binding)
# Protocol: Once such bonds are formed, the bound fraction would become incapable of being metabolized.
# Liver microsomes were diluted with PBS pH 7.4 to a concentration of 0.5 mg protein/mL and 3 µL at 1 mM of the working test compound and solutions were mixed with 357 µL of liver microsome suspension. After mixing, duplicate 200 µL aliquots were immediately removed, while another microtubule acted as the control sample (T 0 h), and were quenched with 400 µL of cold acetonitrile containing analytical internal standards. The other samples were incubated at 37 °C at 100 rpm, for 60 min with the same subsequent treatment.
# PC-3 = assay: SRB cell viability/antiproliferative assay, PC-3; settings: for Emax: SRB 48 h, PC-3, maximum effect at maximum concentration used
# [4] = tested on: human prostate cancer cell line (PC-3); assay: MTT cell viability assay, PC-3; set-up: Emax: dose or concentration left out as unconfirmed
# Protocol: as §8
# PAMPA—GIT = format: in vitro ADME; settings: for Papp: PAMPA, read-out: Pe. Exp. GIT; for Classification GIT: by fraction absorbed
# Protocol: (§1) To obtain information on the permeability potential of LASSBio-2208 on cell membranes, this derivative was tested using the parallel artificial membrane permeability assay (PAMPA) that is used as an in vitro model of passive diffusion and transcellular permeation. In this model, the permeability across two artificial membranes is measured: brain lipid from pig extract in dodecane (called PAMPA—BBB) and L-α soy phosphatidylcholine in dodecane (called PAMPA—TGI).
# (§2) To perform the permeability assay we used a donor plate where the compounds (tests or controls) are diluted in a buffered medium, characterized by the presence of a synthetic membrane of polyvinylidene fluoride (PVDF) impregnated with a lipid solution, forming a barrier through which the compounds migrate through a diffusion process to the lower plate called the receptor.
# (§3) The lipid mixture that impregnates the filter has a different constitution for the permeability tests for the blood–brain barrier (brain lipid from pig extract in dodecane) and gastrointestinal tract (L-α soy phosphatidylcholine in dodecane). In the PAMPA—BBB and PAMPA—GIT assays, the optical density values obtained in the reading at each selected wavelength, for each of the compounds were analysed in comparison with the values of several controls. In the case of the BBB, these values were used to elaborate an equation and determine the permeability coefficient (Pe), using a previously elaborated spreadsheet, and, for the PAMPA—GIT, these values were used to determine the absorbed fraction (Fa%), both using the Excel program. The permeability result for PAMPA—GIT classifies the compounds according to the percentage of absorbed fraction (Fa%), as follows: high intestinal permeability (70–100%), medium permeability (30–69%) or low permeability (0–29%), and the samples were diluted from a stock solution of 10 mM. The PAMPA—BBB model classifies the compounds only as follows: permeable (CNS+) or non-permeable (CNS−) and the assays were made from a stock solution of 1 mg for each compound [25, 40, 41, 42].
# [5] = PBMC viability assay by MTT; format: cell-based, human; settings: MTT 48 h, non-tumour human PBMC
# Protocol: (§4) The SI indicates how selective a compound is for a tumour cell line compared with a non-tumour cell line.
# (§5) Human peripheral blood mononuclear cells (PBMCs) were used to determine the selectivity index (SI) and were obtained from healthy volunteers under a protocol approved by the Ethics Committee CAAE: 38257914.7.0000.5259. Immortalized cells were also obtained from the Rio de Janeiro Cell Bank (BCRJ).
# (§6) First, 8 mL of blood from each healthy donor (3 people) was collected in a tube with EDTA in a 1:20 ratio to prevent the blood from clotting. In a 15 mL Falcon tube containing 4 mL of Ficoll-Paque, the 8 mL of blood collected was slowly added, letting it fall down the walls of the tube. It was centrifuged (Universal Centrifuge 320R Hettich) for 40 min at 750× g at 21 °C with acceleration 1 and brake 0. After centrifugation, in order to extract the ring of mononuclear cells, the supernatant above it was first carefully discarded so as not to disturb the ring. The ring was then slowly removed and placed in another 15 mL Falcon tube to which pure RPMI-1640 medium was added in a 1:1 ratio and centrifuged for 10 min at 580× g and 21 °C with acceleration 8 and brake 9 [34, 35].
# (§7) The supernatant was discarded, and the pellet was resuspended in 1 mL of RPMI-1640 medium supplemented with 10% SBF and 1% antibiotic. An amount of 20 µL of cells were taken from the mixture and added to 380 µL of trypan blue dye for counting in the Neubauer chamber. Considering that 80% of PBMCs are lymphocytes and the rest are monocytes, the cells were plated with the aim of having 10^5 cell/well.
# [6] = tested on: human peripheral blood mononuclear cells (hPBMC); assay: PBMC viability assay by MTT; format: cell-based; settings: MTT 48 h, human PBMC; maximum cytotoxic response at 100 µM
# Protocol: as §4, §5, §6, §7
# MCF-7 = assay: SRB cell viability/antiproliferative assay, MCF-7; settings: Homo sapiens, MCF7, 48 h
# PAMPA—BBB = format: in vitro ADME; set-up: key to Classification BBB: permeable (CNS+); non-permeable (CNS−)
# Protocol: as §1, §2, §3
# [7] = tested on: breast cancer cell line (MCF-7); assay: MTT cell viability assay, MCF-7
# Protocol: as §8
# [8] = tested on: T lymphoblast cell line (MOLT-4); set-up: method as in PMID 37259357; settings: cited from earlier work
# [9] = tested on: human leukaemia cell line (CCRF-CEM); set-up: method as in PMID 37259357; settings: cited from earlier work
# [10] = tested on: breast cancer cell line (MCF-7); set-up: method as in PMID 37259357; settings: cited from earlier work
# [11] = tested on: human prostate cancer cell line (PC-3); set-up: method as in PMID 37259357; settings: cited from earlier work
smiles,measurement,setting,value
"CN1CCc2c(c3ccccc3n2Cc2ccc(C(=O)NO)cc2)C1 [Tubastatin A, tubastatin A]",CC50,CCRF-CEM,9.69 µM
same,Emax,CCRF-CEM,69.5%
same,Emax,"[1]; MOLT-4, 24 h",94.6%
same,CC50,"[1]; MOLT-4, 48 h",7.5 µM
same,Emax,"[1]; MOLT-4, 48 h",98.2%
same,Emax,"[1]; MOLT-4, 72 h",98.7%
same,CC50,[2]; 24 h,12.5 µM
same,Emax,[2]; 24 h,95.8%
same,CC50,[2]; 48 h,9.38 µM
same,Emax,[2]; 48 h,99.1%
same,CC50,[2]; 72 h,7.11 µM
same,Emax,[2]; 72 h,99.3%
same,CC50,MOLT-4,10.5 µM
same,Emax,MOLT-4,54.4%
same,"fraction unbound at 60 min, 8.3 µM",[3],0.131
same,CC50,"PC-3; Homo sapiens, PC-3, 48 h",> 100 µM
same,Emax,"PC-3; Homo sapiens, PC-3, 48 h",< 35%
same,Emax,PC-3,39.3%
same,CC50,"[4]; Homo sapiens, 24 h",> 100 µM
same,Emax,"[4]; Homo sapiens, 24 h",41.8%
same,CC50,"[4]; Homo sapiens, 48 h",65.9 µM
same,Emax,"[4]; Homo sapiens, 48 h",67.8%
same,CC50,"[4]; Homo sapiens, 72 h",34.9 µM
same,Emax,"[4]; Homo sapiens, 72 h",83.6%
same,CC50,"[4]; MTT 24 h, PC-3",did not show any cytotoxic activity
same,Fraction Absorbed,PAMPA—GIT,52.93%
same,Papp,PAMPA—GIT,1.98 ×10⁻⁶ cm/s
same,Classification GIT,PAMPA—GIT,Medium (medium permeability (30–69%))
same,Classification GIT,PAMPA—GIT; listed as tubastatin A,medium
same,Fraction Absorbed,PAMPA—GIT; listed as tubastatin A,52.9%
same,CC50 at 48 h,[5],85.7 µM
same,Emax,[6],58.2%
same,CC50,MCF-7,66 µM
same,Emax,"MCF-7; SRB 48 h, MCF-7, maximum effect at maximum concentration used",> 70%
same,Classification BBB,PAMPA—BBB,CNS+
same,Papp,PAMPA—BBB; read-out: Pe. Exp. BBB,5.54 ×10⁻⁶ cm/s
same,CC50,"[7]; Homo sapiens, MCF7, 24 h",> 100 µM
same,Emax,"[7]; Homo sapiens, MCF7, 24 h",40.1%
same,CC50,"[7]; Homo sapiens, MCF7, 48 h",> 100 µM
same,Emax,"[7]; Homo sapiens, MCF7, 48 h",48.2%
same,CC50,"[7]; Homo sapiens, MCF7, 72 h",83.6 µM
same,Emax,"[7]; Homo sapiens, MCF7, 72 h",56.8%
same,CC50,"[7]; MTT 24 h, MCF-7",did not show any cytotoxic activity
"CN(C)C1CCN(C(=O)c2ccc(NC(=O)Nc3ccc(-c4nc(N5CCOCC5)nc(N5CCOCC5)n4)cc3)cc2)CC1 [Gedatolisib, gedatolisib]",CC50,CCRF-CEM,0.78 µM
same,Emax,CCRF-CEM,66.2%
same,CC50,"[1]; MOLT-4, 24 h",0.35 µM
same,Emax,"[1]; MOLT-4, 24 h",97.2%
same,CC50,"[1]; MOLT-4, 48 h",0.08 µM
same,Emax,"[1]; MOLT-4, 48 h",99.3%
same,CC50,"[1]; MOLT-4, 72 h",0.07 µM
same,CC50,[2]; 24 h,0.31 µM
same,Emax,[2]; 24 h,98.6%
same,CC50,[2]; 48 h,0.085 µM
same,Emax,[2]; 48 h,99.5%
same,CC50,[2]; 72 h,0.09 µM
same,Emax,[2]; 72 h,100%
same,CC50,[8],0.02 µM
same,CC50,MOLT-4,3.68 µM
same,Emax,MOLT-4,69.2%
same,"fraction unbound at 60 min, 8.3 µM",[3],0.503
same,CC50,"PC-3; Homo sapiens, PC-3, 48 h",6.16 µM
same,Emax,"PC-3; Homo sapiens, PC-3, 48 h",> 50%
same,CC50,[9],0.03 µM
same,CC50,"[4]; Homo sapiens, 24 h",> 100 µM
same,Emax,"[4]; Homo sapiens, 24 h",48%
same,CC50,"[4]; Homo sapiens, 48 h",5.05 µM
same,Emax,"[4]; Homo sapiens, 48 h",60.5%
same,CC50,"[4]; Homo sapiens, 72 h",0.86 µM
same,Emax,"[4]; Homo sapiens, 72 h",81.1%
same,Fraction Absorbed,PAMPA—GIT,48.4%
same,Papp,PAMPA—GIT,1.74 ×10⁻⁶ cm/s
same,CC50,MCF-7,0.03 µM
same,Emax,MCF-7,95.7%
same,Classification BBB,PAMPA—BBB,Insoluble
same,Pe. Exp. BBB,PAMPA—BBB,Insoluble
same,Pe. Exp. BBB,PAMPA—BBB; listed as gedatolisib,insoluble
same,CC50,"[7]; Homo sapiens, MCF7, 24 h",5.04 µM
same,Emax,"[7]; Homo sapiens, MCF7, 24 h",79.9%
same,CC50,"[7]; Homo sapiens, MCF7, 48 h",0.21 µM
same,Emax,"[7]; Homo sapiens, MCF7, 48 h",96.8%
same,CC50,"[7]; Homo sapiens, MCF7, 72 h",0.06 µM
same,CC50,[10],0.07 µM
same,CC50,[11],0.54 µM
